According to PMC6407917, “Identification of GSK3186899/DDD853651 as a Preclinical Development Candidate for the Treatment of Visceral Leishmaniasis” (Journal of Medicinal Chemistry, 2018):

How the values were obtained:
Assay in all cases: biochemical
Parameters in all cases: species or system HEK293/K-562/placenta mixed human extract; Kinobeads chemoproteomic competition binding, quantified by TMT LC-MS/MS, dose response up to 20 uM
[1] = target: ARAF (Homo sapiens, UniProt P10398)
[2] = target: CDK2 (Homo sapiens, UniProt P24941)
[3] = target: CDK5 (Homo sapiens, UniProt Q00535)
CDK5, sequence (Q00535 whole entry): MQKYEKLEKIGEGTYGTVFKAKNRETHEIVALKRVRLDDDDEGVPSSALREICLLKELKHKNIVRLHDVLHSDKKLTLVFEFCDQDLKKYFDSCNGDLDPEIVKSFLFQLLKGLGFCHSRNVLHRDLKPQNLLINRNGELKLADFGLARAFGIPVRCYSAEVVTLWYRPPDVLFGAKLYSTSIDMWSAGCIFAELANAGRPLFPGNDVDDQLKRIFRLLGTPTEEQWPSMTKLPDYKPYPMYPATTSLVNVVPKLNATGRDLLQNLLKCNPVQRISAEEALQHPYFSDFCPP

[4] = target: DCK (Homo sapiens, UniProt P27707)
DCK, sequence (P27707 whole entry): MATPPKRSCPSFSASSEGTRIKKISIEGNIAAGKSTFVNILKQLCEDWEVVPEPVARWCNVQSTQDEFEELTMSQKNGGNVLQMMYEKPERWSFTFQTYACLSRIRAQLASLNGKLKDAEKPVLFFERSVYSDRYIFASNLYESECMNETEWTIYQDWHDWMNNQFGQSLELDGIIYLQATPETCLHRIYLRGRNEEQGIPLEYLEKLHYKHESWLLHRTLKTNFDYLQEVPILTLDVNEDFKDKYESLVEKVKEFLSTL

[5] = target: EIF2AK4 (Homo sapiens, UniProt Q9P2K8)
[6] = target: EPHA5 (Homo sapiens, UniProt P54756)
[7] = target: EPHB4 (Homo sapiens, UniProt P54760)
[8] = target: ERN1 (Homo sapiens, UniProt O75460)
[9] = target: FLT4 (Homo sapiens, UniProt P35916)
[10] = target: FYN (Homo sapiens, UniProt P06241)
[11] = target: MAP3K2 (Homo sapiens, UniProt Q9Y2U5)
[12] = target: MELK (Homo sapiens, UniProt Q14680)
MELK, sequence (Q14680 whole entry): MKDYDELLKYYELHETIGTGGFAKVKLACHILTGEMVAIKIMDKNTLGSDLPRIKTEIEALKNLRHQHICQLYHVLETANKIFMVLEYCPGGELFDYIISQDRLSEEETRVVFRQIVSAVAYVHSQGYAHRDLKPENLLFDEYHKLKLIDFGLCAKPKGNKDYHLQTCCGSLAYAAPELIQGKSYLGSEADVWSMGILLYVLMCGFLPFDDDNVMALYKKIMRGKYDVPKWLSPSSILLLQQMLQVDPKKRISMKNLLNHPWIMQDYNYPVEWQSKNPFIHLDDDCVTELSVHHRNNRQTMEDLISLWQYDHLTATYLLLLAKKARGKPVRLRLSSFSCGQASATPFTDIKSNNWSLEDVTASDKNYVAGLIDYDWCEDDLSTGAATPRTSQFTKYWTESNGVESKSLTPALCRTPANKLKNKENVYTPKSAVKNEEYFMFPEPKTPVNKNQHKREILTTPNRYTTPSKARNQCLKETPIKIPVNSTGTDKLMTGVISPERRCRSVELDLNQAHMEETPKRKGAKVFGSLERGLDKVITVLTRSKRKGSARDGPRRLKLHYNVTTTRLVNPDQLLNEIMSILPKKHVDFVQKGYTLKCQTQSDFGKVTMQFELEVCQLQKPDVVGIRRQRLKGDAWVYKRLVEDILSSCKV

[13] = target: MINK1 (Homo sapiens, UniProt Q8N4C8)
MINK1, sequence (Q8N4C8 whole entry): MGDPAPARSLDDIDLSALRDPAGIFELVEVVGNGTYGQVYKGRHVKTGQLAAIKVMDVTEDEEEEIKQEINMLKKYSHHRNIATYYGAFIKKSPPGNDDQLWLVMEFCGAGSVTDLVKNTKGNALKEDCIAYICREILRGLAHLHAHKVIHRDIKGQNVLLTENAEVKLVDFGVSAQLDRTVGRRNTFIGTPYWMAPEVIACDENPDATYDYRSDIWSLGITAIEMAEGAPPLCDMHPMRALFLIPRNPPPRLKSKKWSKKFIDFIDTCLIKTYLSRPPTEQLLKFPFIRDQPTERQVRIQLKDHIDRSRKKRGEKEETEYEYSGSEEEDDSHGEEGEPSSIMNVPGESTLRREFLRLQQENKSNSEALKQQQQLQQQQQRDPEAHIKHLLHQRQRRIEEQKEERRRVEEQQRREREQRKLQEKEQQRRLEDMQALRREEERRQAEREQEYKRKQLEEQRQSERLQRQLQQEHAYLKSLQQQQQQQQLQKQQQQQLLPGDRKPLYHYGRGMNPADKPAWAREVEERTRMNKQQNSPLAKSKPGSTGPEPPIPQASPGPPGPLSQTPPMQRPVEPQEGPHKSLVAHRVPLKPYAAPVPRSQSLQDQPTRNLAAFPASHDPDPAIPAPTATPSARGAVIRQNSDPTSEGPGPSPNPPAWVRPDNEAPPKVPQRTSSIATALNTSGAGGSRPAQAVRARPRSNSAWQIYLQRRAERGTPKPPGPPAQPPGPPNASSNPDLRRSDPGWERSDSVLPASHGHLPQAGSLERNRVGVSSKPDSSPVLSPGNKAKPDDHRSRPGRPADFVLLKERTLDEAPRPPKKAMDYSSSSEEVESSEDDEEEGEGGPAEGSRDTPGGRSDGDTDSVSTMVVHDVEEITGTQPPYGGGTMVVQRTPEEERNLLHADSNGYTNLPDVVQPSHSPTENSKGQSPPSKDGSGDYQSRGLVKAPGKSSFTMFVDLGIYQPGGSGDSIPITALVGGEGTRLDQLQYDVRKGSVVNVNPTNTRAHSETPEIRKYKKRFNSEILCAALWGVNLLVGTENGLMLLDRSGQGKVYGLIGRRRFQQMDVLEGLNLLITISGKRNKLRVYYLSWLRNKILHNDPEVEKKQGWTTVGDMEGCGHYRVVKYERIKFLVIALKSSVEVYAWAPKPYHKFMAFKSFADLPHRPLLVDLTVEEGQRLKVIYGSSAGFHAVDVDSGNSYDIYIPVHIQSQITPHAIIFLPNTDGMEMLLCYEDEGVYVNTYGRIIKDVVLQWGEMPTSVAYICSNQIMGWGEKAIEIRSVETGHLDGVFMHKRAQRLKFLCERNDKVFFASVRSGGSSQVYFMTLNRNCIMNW

[14] = target: NRK (Homo sapiens, UniProt Q7Z2Y5)
NRK, sequence (Q7Z2Y5 whole entry): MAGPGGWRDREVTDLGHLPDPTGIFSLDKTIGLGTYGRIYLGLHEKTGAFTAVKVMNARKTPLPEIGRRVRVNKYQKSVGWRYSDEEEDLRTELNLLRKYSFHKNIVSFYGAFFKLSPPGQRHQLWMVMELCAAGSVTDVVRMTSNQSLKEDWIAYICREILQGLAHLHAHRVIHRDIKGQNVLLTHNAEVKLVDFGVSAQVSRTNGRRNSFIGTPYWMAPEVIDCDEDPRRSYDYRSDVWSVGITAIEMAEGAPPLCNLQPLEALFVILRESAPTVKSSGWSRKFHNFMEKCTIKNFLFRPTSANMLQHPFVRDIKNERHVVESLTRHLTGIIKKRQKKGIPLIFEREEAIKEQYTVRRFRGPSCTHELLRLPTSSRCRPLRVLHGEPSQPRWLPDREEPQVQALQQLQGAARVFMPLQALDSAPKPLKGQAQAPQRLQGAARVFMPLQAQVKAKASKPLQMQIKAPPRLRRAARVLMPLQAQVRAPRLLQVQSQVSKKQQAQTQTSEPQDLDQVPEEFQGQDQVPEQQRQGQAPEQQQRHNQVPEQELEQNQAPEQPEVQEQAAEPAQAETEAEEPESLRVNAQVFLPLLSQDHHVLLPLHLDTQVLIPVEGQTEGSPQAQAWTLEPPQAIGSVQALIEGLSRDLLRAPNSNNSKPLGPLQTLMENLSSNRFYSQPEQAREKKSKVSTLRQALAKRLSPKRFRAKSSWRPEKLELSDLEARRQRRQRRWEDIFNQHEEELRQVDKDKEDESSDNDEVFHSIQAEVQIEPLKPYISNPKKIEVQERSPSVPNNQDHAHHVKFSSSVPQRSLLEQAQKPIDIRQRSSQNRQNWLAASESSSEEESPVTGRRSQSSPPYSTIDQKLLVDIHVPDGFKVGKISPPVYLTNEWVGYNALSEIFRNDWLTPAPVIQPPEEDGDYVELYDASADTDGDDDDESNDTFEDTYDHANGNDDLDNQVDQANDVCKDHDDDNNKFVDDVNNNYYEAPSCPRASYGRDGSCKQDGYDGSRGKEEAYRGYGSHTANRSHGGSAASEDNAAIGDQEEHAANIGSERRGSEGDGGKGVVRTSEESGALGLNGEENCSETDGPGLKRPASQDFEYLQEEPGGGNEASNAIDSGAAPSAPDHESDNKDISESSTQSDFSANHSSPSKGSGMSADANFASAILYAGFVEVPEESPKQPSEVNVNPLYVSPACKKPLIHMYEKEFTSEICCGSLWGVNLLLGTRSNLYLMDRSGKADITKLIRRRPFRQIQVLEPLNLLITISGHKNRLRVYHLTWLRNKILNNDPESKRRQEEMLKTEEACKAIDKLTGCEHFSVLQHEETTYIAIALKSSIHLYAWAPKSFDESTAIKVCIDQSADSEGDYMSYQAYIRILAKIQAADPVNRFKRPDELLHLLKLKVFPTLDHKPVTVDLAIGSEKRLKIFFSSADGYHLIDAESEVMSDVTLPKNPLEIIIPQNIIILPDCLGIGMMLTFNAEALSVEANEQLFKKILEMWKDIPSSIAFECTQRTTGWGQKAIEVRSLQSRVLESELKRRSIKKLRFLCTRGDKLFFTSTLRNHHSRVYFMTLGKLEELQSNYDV

[15] = target: NUAK1 (Homo sapiens, UniProt O60285)
[16] = target: PIP4K2A (Homo sapiens, UniProt P48426)
PIP4K2A, sequence (P48426 whole entry): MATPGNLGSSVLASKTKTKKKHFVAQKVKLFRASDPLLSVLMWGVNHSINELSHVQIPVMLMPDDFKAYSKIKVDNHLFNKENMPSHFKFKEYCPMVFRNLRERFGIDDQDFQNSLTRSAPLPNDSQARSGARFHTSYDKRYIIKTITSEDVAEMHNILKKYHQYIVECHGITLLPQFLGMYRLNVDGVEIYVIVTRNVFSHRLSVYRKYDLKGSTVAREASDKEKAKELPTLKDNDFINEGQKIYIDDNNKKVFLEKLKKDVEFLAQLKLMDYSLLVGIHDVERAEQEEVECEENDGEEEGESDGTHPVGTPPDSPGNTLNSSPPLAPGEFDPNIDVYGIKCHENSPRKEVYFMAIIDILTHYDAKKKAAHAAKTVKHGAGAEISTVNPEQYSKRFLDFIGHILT

[17] = target: PRKACA (Homo sapiens, UniProt P17612)
[18] = target: PRKCD (Homo sapiens, UniProt Q05655)
[19] = target: RIOK2 (Homo sapiens, UniProt Q9BVS4)
[20] = target: STK35 (Homo sapiens, UniProt Q8TDR2)
STK35, sequence (Q8TDR2 whole entry): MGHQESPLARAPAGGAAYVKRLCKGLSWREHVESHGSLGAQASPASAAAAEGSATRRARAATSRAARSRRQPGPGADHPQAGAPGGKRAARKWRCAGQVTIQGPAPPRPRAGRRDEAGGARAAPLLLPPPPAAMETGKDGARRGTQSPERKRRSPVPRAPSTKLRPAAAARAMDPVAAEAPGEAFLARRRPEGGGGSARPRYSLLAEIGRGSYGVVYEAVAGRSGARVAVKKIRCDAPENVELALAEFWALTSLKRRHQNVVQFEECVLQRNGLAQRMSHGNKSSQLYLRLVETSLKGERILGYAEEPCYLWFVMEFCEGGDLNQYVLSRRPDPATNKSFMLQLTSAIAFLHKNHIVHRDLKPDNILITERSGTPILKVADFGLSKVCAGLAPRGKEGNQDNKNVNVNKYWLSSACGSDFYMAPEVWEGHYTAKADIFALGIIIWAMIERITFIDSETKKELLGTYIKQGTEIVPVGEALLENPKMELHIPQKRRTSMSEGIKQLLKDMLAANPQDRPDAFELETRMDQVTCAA

[21] = target: WNK4 (Homo sapiens, UniProt Q96J92)

Q: Which IC50 [1] does the source give for `COc1nc(N[C@H]2CC[C@H](NS(=O)(=O)CC(C)C)CC2)nc2[nH]nc(N3CCOC[C@H]3C)c12` [compound 39, N-(trans-4-((4-Methoxy-3-((R)-3-methylmorpholino)-1H-pyrazolo[3,4-d]pyrimidin-6-yl)amino)cyclohexyl)-2-methylpropane-1-sulfonamide] here?
A: Its IC50 is ≥ 20 µM.

Q: What about the IC50 [2] of the same compound?
A: The IC50 was 4.5 µM.

Q: And the IC50 [3]?
A: The IC50 was 12 µM.

Q: What about the IC50 [4] of the same compound?
A: The IC50 was ≥ 20 µM.

Q: And the IC50 [5]?
A: The IC50 was ≥ 20 µM.

Q: What about the IC50 [6] of the same compound?
A: Its IC50 is ≥ 20 µM.

Q: What about the IC50 [7] of the same compound?
A: The IC50 was ≥ 20 µM.

Q: And the IC50 [8]?
A: The IC50 was ≥ 20 µM.

Q: And the IC50 [9]?
A: The IC50 was ≥ 20 µM.

Q: And the IC50 [10]?
A: The IC50 was ≥ 20 µM.

Q: What about the IC50 [11] of the same compound?
A: The IC50 was ≥ 20 µM.

Q: What about the IC50 [12] of the same compound?
A: The IC50 was ≥ 20 µM.

Q: What about the IC50 [13] of the same compound?
A: The IC50 was ≥ 20 µM.

Q: And the IC50 [14]?
A: Its IC50 is ≥ 20 µM.

Q: What about the IC50 [15] of the same compound?
A: Its IC50 is ≥ 20 µM.

Q: What about the IC50 [16] of the same compound?
A: The IC50 was ≥ 20 µM.

Q: And the IC50 [17]?
A: Its IC50 is ≥ 20 µM.

Q: And the IC50 [18]?
A: The IC50 was ≥ 20 µM.

Q: And the IC50 [19]?
A: The IC50 was ≥ 20 µM.

Q: What about the IC50 [20] of the same compound?
A: The IC50 was ≥ 20 µM.

Q: And the IC50 [21]?
A: The IC50 was ≥ 20 µM.
